Here are results for 8 molecules from patent US5677346A, “Treating urinary incontinence using (S)-desethyloxybutynin” (Sepracor, Inc., priority 1995, dated 1997).

Test [1] has as its system guinea pig bladder smooth muscle strips. In words: Potassium-induced contraction of isolated bladder strips (spasmolytic activity).
The target of test [2] is T1, human recombinant M2 muscarinic receptor (Homo sapiens, UniProt P08172).
T1 construct: made in house; host or cells: SF9 insect cells infected with baculovirus (membranes)
T1 sequence (P08172 1-466): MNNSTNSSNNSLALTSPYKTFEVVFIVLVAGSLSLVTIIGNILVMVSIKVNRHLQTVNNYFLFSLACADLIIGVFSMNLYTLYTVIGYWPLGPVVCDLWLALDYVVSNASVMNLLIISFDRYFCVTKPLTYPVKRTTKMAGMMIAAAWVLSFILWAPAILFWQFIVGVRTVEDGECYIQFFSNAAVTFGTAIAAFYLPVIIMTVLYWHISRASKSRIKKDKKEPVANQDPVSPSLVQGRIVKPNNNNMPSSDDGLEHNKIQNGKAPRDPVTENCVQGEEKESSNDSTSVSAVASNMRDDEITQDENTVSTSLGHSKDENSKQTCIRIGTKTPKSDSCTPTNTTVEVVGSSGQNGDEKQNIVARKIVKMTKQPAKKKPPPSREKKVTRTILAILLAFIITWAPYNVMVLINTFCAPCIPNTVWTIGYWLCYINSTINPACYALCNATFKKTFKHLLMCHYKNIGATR
In words: biochemical. The format is binding. To be noted: for inhibition at 10 µM: read-out: percent inhibition of specific radioligand binding M2H 10^-5 M; for inhibition at 0.1 µM: read-out: percent inhibition of specific radioligand binding M2H 10^-7 M.

The target in test [3] is T2, human recombinant M4 muscarinic receptor (Homo sapiens, UniProt P08173).
T2 construct: made in house; host or cells: SF9 insect cells infected with baculovirus (membranes)
T2 sequence (P08173 1-479): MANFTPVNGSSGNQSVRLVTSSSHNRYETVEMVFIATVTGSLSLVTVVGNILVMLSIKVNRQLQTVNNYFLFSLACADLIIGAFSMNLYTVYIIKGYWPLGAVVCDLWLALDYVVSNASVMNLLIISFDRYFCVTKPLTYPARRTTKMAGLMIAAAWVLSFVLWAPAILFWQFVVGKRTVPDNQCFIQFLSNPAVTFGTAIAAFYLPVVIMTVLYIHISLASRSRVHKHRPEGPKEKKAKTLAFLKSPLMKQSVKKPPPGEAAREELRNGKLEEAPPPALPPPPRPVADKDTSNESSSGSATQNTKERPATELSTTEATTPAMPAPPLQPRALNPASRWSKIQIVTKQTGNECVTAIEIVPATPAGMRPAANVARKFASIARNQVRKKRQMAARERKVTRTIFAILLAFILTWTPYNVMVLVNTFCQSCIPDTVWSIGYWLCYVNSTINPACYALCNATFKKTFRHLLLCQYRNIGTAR
In words: biochemical. The format is binding. To be noted: for inhibition at 10 µM: read-out: percent inhibition of specific radioligand binding M4H 10^-5 M; for inhibition at 0.1 µM: read-out: percent inhibition of specific radioligand binding M4H 10^-7 M; for inhibition at 0.001 µM: read-out: percent inhibition of specific radioligand binding M4H 10^-9 M.

Test [4] relates to Ca channel (T + L, diltiazem site). In kind it is binding, rat. To be noted: for percent inhibition of specific radioligand binding, Calcium (diltiazem): Table 8, 10^-5 M.
The subject of test [5] is Ca channel (T + L, verapamil site). Kind of test: Binding to calcium channel, verapamil site ([3H]D 888, rat cerebral cortex). To be noted: for percent inhibition of specific radioligand binding, Calcium (verapamil): Table 8, 10^-5 M.
Test [6] addresses T3, bladder muscarinic receptors (guinea pig bladder smooth muscle strips) (Cavia porcellus, UniProt H0W1Z3).
T3 construct: isolated strips of guinea pig bladder smooth muscle; from tissue; host or cells: urinary bladder strips of male Hartley guinea pigs
Kind of test: Carbachol-induced contraction of isolated bladder strips (antimuscarinic activity). To be noted: for Slope (Schild regression): Table 9, mean ± SE.

Test [7] concerns human muscarinic receptor subtypes M1-M4. In words: Binding to human muscarinic receptor subtypes M1-M4, overall result.
Test [8] relates to calcium channel (diltiazem and verapamil sites). In words: Binding at calcium channels, overall result. Further details: species or system rat. To be noted: 10^-5 M.
Setting [9] is: Table 10, 137.7 mM K+, 60 min exposure, n = 3, * significantly different from untreated (< 0.01).

T3 sequence (H0W1Z3 1-590): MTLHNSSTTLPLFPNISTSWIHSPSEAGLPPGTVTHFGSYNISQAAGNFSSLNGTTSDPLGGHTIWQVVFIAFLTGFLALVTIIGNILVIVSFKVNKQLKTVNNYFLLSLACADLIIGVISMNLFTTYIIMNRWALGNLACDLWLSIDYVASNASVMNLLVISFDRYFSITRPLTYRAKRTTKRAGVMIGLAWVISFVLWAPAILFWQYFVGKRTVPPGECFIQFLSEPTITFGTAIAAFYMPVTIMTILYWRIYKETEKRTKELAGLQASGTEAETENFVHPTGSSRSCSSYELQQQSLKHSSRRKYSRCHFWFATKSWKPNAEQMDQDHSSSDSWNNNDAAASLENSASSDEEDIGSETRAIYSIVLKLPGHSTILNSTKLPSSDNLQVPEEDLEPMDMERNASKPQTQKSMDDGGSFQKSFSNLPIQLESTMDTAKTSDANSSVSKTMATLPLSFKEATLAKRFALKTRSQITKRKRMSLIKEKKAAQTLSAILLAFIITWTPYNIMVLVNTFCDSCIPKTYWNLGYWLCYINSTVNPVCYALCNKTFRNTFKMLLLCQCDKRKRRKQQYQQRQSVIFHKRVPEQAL

With `CCN(CC)CC#CCOC(=O)[C@](O)(c1ccccc1)C1CCCCC1` [R-OXY, reference compound], in test [1] (setting [9]), the “Mean % pretreatment ± SE (magnitude of contraction induced by 137.7 mM K+ after exposure to compound / before)” value is reported as 32 ± 8%.
As to `CCNCC#CCOC(=O)C(O)(c1ccccc1)C1CCCCC1.Cl` (racemic) [RS-DEO, 4-(Ethylamino)-2-butynyl α-cyclohexyl-α-hydroxybenzeneacetate hydrochloride salt], in test [2], the IC50 (commonly the concentration at which inhibition is half-maximal) stood at 7 nM; the inhibition (in general, the relative decrease from the control value, in per cent) at 10 µM stood at 99%; the inhibition at 0.1 µM was determined as 94%. In test [3], the inhibition at 10 µM is 95%, the inhibition at 0.1 µM stood at 99% and the inhibition at 0.001 µM turned out to be 34%. Also, the “percent inhibition of specific radioligand binding, Calcium (diltiazem)” value (shortened to “percent inhibition … Calcium (diltiazem)”) in test [4] stood at 88%. In test [5], the “percent inhibition of specific radioligand binding, Calcium (verapamil)” value (“percent inhibition … Calcium (verapamil)” below) is on record as 89%. Moreover, in test [6], the Kb is 2.82 nM and the “Slope (Schild regression)” value was 1.35 ± 0.25. In addition, the “Mean % pretreatment ± SE (magnitude of contraction induced by 137.7 mM K+ after exposure to compound / before)” value in test [1] (setting [9]) is recorded as 47 ± 8%.
On to `CCNCC#CCOC(=O)[C@](O)(c1ccccc1)C1CCCCC1.Cl` [R-DEO, 4-(Ethylamino)-2-butynyl (R)-α-cyclohexyl-α-hydroxybenzeneacetate hydrochloride salt], for which, in test [2], the 50% inhibitory concentration (IC50) is 14.7 nM, the inhibition at 10 µM stood at 102% and the inhibition at 0.1 µM came to 97%. Also, the inhibition at 0.001 µM in test [2] (read-out: percent inhibition of specific radioligand binding M2H 10^-9 M) was 21%. Moreover, in test [3], the inhibition at 10 µM was 99%, the inhibition at 0.1 µM was 100% and the inhibition at 0.001 µM is 58%. The “percent inhibition … Calcium (diltiazem)” value in test [4] came out at 86%. Moreover, the “percent inhibition … Calcium (verapamil)” value in test [5] stood at 96%. Besides, in test [6], the Kb worked out at 0.912 nM and the “Slope (Schild regression)” value was 1.16 ± 0.11. Also, in test [1] (setting [9]), the “Mean % pretreatment ± SE (magnitude of contraction induced by 137.7 mM K+ after exposure to compound / before)” value worked out at 36 ± 5%.
On to `CCN(CC)CC#CCOC(=O)[C@@](O)(c1ccccc1)C1CCCCC1` [S-OXY, 4-(diethylamino)-2-butynyl α-cyclohexyl-α-hydroxybenzeneacetate], for which, in test [1] (guinea pig, bladder strips, 60 min), the “Mean % pretreatment ± SE (magnitude of contraction induced by 137.7 mM K+ after exposure to compound / before)” value worked out at 26 ± 9%.
`COc1ccc([C@@H]2Sc3ccccc3N(CCN(C)C)C(=O)[C@@H]2OC(C)=O)cc1` [diltiazem, reference compound]: the 50% inhibitory concentration (IC50) in test [4] (Table 5, reference compound, 8 concentrations, read-out: Ref. Compound IC50, Calcium (diltiazem)) came to 55.8 nM.
On to `CCNCC#CCOC(=O)[C@@](O)(c1ccccc1)C1CCCCC1.Cl` [S-DEO, 4-(Ethylamino)-2-butynyl (S)-α-cyclohexyl-α-hydroxybenzeneacetate hydrochloride salt], for which, in test [2], the 50% inhibitory concentration (IC50) worked out at 177 nM and the inhibition at 0.1 µM turned out to be 36%. Also, in test [3], the inhibition at 10 µM stood at 99% and the inhibition at 0.1 µM came to 43%. Besides, in test [7], the “affinity for muscarinic receptor subtypes (in words)” value is “less affinity for muscarinic receptor subtypes than either R- or racemic DEO”. Further, the “percent inhibition … Calcium (diltiazem)” value in test [4] amounted to 72%. In test [5], the “percent inhibition … Calcium (verapamil)” value is on record as 76%. Besides, the “calcium entry blocking activity (in words)” value in test [8] was “calcium entry blocking activity similar to that of R- and racemic DEO”. In addition, in test [6], the Kb was 49 nM and the “Slope (Schild regression)” value worked out at 0.87 ± 0.11. Further, the “antagonism of bladder muscarinic receptors (in words)” value in test [6] (carbachol-induced contraction) was “less potent antagonists of bladder muscarinic receptors than are R- and racemic OXY and R- and racemic DEO”.
With `CCN(CC)CC#CCOC(=O)C(O)(c1ccccc1)C1CCCCC1` (racemic) [RS-OXY, 4-(diethylamino)-2-butynyl α-cyclohexyl-α-hydroxybenzeneacetate, reference compound], the “Mean % pretreatment ± SE (magnitude of contraction induced by 137.7 mM K+ after exposure to compound / before)” value in test [1] (setting [9]) was found to be 20 ± 1%.
With `COc1ccc(CCN(C)CCCC(C#N)(c2cc(OC)c(OC)c(OC)c2)C(C)C)cc1OC` (racemic) [D600, reference compound], the IC50 in test [5] (Table 5, reference compound, 8 concentrations, read-out: Ref. Compound IC50, Calcium (verapamil)) was 36.4 nM.
